pEC50: −log10 of the molar value.
Key:
PDIA1 C53A and C397A = type: binding; conditions: from IC50 values; PDIA1 C53A and C397A 50 μg/mL in MCF-7 lysates 1 mg/mL, CA-Rh 8 μM
PDIA1 [1] = target: T1, PDIA1 (Homo sapiens, UniProt P07237); test: Insulin turbidity assay; conditions: for kinact/KI: 0.5 μM PDIA1, 0.16 mM insulin, 1 mM DTT, varying concentrations and pre-incubation times
[2] = target: T2, purified, recombinant PDIA1 (Homo sapiens, UniProt P07237); test: In-gel fluorescence screen: covalent modification of purified recombinant PDIA1; type: binding; conditions: compound 5 μM, PDIA1 50 μg/mL, 1 hour, TAMRA in-gel fluorescence
[3] = target: T2, purified, recombinant PDIA1; test: In-gel fluorescence: recombinant PDIA1 in the background of MCF-7 cell lysates; type: binding; conditions: PDIA1 50 μg/mL in MCF-7 cell lysates 1 mg/mL
endogenous PDIA1 = endogenous PDIA1 (Homo sapiens, UniProt P07237); test: In-gel fluorescence: endogenous PDIA1 in MCF-7 lysates; type: binding; conditions: compound 5 μM, MCF-7 lysates 2 mg/mL
SKOV-3 = test: qPCR analysis of UPR target genes; type: cell-based; conditions: SKOV-3 cells
[4] = test system: HEK293^Trex cells stably expressing ^FTALLC; test: FTALLC secretion by ELISA; type: cell-based; conditions: KSC-34 40 μM, 4 h pretreatment, 2 h conditioning, compared to vehicle
[5] = test system: HEK293^Trex cells stably expressing ^FTALLC; test: Viability by Cell Titre Glo; type: cell-based; conditions: KSC-34 40 μM, Cell Titre Glo after media conditioning
HEK293^DAX cells = test: [35S] metabolic labeling, fraction FTALLC secreted; type: cell-based; conditions: KSC-34 40 μM added 1 h prior to labeling and throughout
PDIA1 [6] = target: T1, PDIA1; conditions: 5 μM, MCF-7 cells, 3 hours at 37 °C
PDIA1 C53A = PDIA1 C53A (Homo sapiens, UniProt P07237, C53A); conditions: KSC-34 5 μM, protein 50 μg/mL, 1 hour
PDIA3 = PDIA3 (Homo sapiens, UniProt P30101); conditions: PDIA3 50 μg/mL, with or without MCF-7 lysates 1 mg/mL
PDIA4 [7] = target: T3, PDIA4 (Homo sapiens, UniProt P13667); conditions: PDIA4 50 μg/mL, with or without MCF-7 lysates 1 mg/mL
PDIA1 [8] = target: T1, PDIA1; conditions: MCF-7 cells, KSC-34 5 μM; ~5 in the DMSO control
PDIA6 = PDIA6 (Homo sapiens, UniProt Q15084); conditions: MCF-7 cells, KSC-34 5 μM
MCF-7 cells [9] = conditions: read-out: EC50 MTT cell viability
MCF-7 cells [10] = test system: MCF-7 cells
PDIA1 [11] = target: T1, PDIA1; conditions: HEK293^DAX cells, KSC-34 40 μM, 1 h pre-treatment
PDIA4 [12] = target: T3, PDIA4; conditions: HEK293^DAX cells, KSC-34 40 μM, 1 h pre-treatment
[13] = test system: HEK293^DAX cells stably expressing PDIA1 shRNA; conditions: KSC-34 40 μM, ELISA and [35S] metabolic labeling
[14] = target: prostaglandin E synthase 2 (PTGES2) (Homo sapiens, UniProt Q9H7Z7); test: Proteome-wide target enrichment, LC/LC-MS/MS spectral counts; conditions: MCF-7 cells, KSC-34 5 μM
Sequence of prostaglandin E synthase 2 (PTGES2) (Q9H7Z7 whole entry): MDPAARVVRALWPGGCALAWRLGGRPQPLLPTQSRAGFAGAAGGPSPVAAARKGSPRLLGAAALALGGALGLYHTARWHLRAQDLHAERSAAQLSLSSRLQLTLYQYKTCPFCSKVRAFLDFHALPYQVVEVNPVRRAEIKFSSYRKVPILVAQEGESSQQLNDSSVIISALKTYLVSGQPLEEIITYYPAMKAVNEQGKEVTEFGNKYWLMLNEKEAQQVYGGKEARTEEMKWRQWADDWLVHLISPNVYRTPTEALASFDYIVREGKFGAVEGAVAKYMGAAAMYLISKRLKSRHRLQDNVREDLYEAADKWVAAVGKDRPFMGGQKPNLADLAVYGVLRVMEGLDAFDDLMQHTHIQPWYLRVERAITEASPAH

T1 sequence (P07237 18-508): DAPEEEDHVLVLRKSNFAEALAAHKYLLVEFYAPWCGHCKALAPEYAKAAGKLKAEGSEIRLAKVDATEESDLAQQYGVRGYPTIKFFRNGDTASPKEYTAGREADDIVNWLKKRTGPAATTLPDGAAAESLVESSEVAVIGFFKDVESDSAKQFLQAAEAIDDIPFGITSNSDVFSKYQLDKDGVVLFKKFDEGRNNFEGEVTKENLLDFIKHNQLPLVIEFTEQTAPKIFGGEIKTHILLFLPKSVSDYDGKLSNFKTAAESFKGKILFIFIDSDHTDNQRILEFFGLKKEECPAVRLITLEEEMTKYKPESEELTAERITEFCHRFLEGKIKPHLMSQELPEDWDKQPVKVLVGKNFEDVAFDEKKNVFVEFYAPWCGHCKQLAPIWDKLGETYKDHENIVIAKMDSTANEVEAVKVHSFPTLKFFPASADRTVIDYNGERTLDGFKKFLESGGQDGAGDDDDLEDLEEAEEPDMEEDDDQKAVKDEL
T3 sequence (P13667 21-645, species assumed): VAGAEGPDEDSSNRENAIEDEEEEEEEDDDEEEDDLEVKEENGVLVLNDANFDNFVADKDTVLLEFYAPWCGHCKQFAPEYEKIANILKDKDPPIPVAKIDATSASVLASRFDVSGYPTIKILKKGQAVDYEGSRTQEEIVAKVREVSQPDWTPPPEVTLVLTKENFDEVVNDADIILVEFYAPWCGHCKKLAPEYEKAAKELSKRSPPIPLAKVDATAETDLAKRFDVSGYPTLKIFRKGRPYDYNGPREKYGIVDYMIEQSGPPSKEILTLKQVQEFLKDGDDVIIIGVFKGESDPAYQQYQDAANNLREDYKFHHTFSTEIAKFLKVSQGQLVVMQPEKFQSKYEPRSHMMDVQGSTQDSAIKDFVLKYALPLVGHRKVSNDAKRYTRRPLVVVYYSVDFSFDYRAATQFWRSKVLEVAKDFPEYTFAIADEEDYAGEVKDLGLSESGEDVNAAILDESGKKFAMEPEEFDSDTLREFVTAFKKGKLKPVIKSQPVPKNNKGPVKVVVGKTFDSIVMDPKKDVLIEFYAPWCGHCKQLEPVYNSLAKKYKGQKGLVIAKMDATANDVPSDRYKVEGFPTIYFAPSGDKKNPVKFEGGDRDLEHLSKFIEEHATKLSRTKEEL
T2 sequence (P07237 18-508): as the sequence (P07237 18-508) above
Sequence of PDIA1 C53A (P07237 18-508 C53A): as the sequence (P07237 18-508) above, with C36A counted along it
Sequence of PDIA3 (P30101 25-505, species assumed): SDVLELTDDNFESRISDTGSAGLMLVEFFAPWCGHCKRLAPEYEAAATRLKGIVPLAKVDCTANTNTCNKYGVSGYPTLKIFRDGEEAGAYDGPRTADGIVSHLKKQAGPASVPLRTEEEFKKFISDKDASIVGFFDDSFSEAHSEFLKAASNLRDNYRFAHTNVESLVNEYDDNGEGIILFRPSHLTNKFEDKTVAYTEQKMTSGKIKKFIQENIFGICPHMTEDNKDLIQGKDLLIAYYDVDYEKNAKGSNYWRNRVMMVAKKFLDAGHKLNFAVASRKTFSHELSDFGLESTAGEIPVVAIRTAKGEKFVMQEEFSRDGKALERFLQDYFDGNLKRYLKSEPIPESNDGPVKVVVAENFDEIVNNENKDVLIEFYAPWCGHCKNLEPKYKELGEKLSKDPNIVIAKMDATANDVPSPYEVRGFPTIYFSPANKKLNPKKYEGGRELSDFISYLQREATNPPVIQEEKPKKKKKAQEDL
Sequence of PDIA6 (Q15084 20-440): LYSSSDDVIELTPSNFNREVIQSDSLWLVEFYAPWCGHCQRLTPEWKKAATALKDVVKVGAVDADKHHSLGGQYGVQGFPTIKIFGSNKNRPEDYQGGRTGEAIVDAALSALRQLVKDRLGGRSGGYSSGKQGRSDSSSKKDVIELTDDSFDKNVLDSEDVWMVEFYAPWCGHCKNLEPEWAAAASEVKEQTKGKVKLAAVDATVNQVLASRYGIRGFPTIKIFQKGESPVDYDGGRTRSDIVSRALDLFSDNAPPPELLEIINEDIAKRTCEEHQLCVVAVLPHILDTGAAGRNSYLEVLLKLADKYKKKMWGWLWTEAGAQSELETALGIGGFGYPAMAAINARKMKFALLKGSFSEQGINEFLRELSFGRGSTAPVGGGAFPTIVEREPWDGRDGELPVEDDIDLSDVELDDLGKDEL
Sequence of endogenous PDIA1 (P07237 18-508): as the sequence (P07237 18-508) above

16F16 [reference compound]
selectivity for the a domain over the a′ domain (PDIA1 C53A and C397A): 2 fold
kinact/KI (PDIA1 [1]): 252 M⁻¹ s⁻¹

C#CCNc1nc(NCCNC(=O)CCl)nc(N(C)CCCCc2ccccc2)n1 [KSC-34]
covalent modification of PDIA1 relative to RB-11-ca [2]: equal or greater potency compared to RB-11-ca
covalent modification of PDIA1 relative to RB-11-ca [3]: equal or greater potency to RB-11-ca
covalent modification of endogenous PDIA1 relative to RB-11-ca (endogenous PDIA1): equal or greater potency toward PDIA1 compared to RB-11-ca
selectivity for the a domain over the a′ domain (PDIA1 C53A and C397A): 30 fold
effect on IRE1α-dependent UPR transcripts (SKOV-3): no significant effects
reduction of FTALLC levels in conditioned media [4]: 40%
reduction in cellular viability [5]: 20%
reduction of fraction of [35S]-labeled FTALLC secreted (HEK293^DAX cells): 30%
potency of PDIA1 modification in living cells compared to RB-11-ca (PDIA1 [6]): ~ 8 fold
labeling of PDIA1 C53A (PDIA1 C53A): absence of fluorescence
labeling of PDIA3 (PDIA3): absence of fluorescence
labeling of PDIA4 (PDIA4 [7]): absence of fluorescence
average spectral counts matched to PDIA1 (PDIA1 [8]): ~ 2000 spectral counts
spectral counts PDIA6 (PDIA6): ~ 20 spectral counts
pEC50 (MCF-7 cells [9]): 4.09
timeframe of IRE1α activation (MCF-7 cells [10]): < 6 h
activation of the PERK and ATF6 arms of the UPR (MCF-7 cells [10]; 4–40 μM, 3 hours at 37 °C): no significant activation
increase in SEC24D and ERDJ4 mRNA levels (MCF-7 cells [10]; >20 μM KSC-34, 3 hours, relative to DMSO): ~ 2 fold
effect on IRE1α-dependent UPR transcripts (A549 cells): no significant effects
interaction of PDIA1 with FTALLC (co-IP) (PDIA1 [11]): disrupted this interaction
interaction of PDIA4 with FTALLC (co-IP) (PDIA4 [12]): does not influence the interaction between these proteins
KSC-34-dependent reduction in FTALLC secretion upon depletion of PDIA1 [13]: attenuated
kinact/KI (PDIA1 [1]): 9660 M⁻¹ s⁻¹
potency (kinact/KI) relative to RB-11-ca (PDIA1 [1]; insulin turbidity assay): ~ 3 fold
average spectral counts PTGES2 [14]: ~ 120 spectral counts
